Legend:
[1] = tested on: seeds of thale cress (Arabidopsis thaliana, Col-0); test: Thale cress seed germination test; type: in vivo
Description: Seeds of thale cress (Arabidopsis thaliana, Col-0) were immersed in 500 μL of an aqueous solution of 70% ethanol for 30 minutes, subsequently in 500 μL of a 100% ethanol solution for 1 minute, washed five times in 1 mL of distilled water, then immersed in distilled water and, in a dark place, vernalized at 4° C. for 3 days. A solution of the sample in methanol was put in a 1.5 mL-microtube, and methanol was removed therefrom under reduced pressure. An aqueous solution of 0.5% agar (containing ½ MS medium inorganic salts) at 70° C. was added thereto and stirred, and subsequently the obtained mixture was placed in a 96-well plate to prepare the medium containing the sample. All samples were prepared so as to have a concentration of 3 μM of the compound in Examples 1 to 9 and Comparative Example 1. Further, when ABA is applied, the ABA concentration was adjusted to 0.3 μM. 20 to 30 vernalized seeds of thale cress were planted in each well and cultured at 22° C. under continuous light to monitor the number of seeds germinated over time. The germination rate was calculated by the following formula (1). Note that those cultured in medium prepared using methanol in the same manner were used as controls. […] Germination rate (%)=Number of seeds germinated/Number of seeds planted×100 (1)
The same test was carried out as in Test Example 1 with the concentrations of the compound of Example 1 for treatment varying from 0.3 μM to 30 μM.
Similarly, the same test was carried out with the concentrations of the compound of Example 2 for treatment varying from 0.3 μM to 30 μM.
The same test was carried out as in Test Example 2 with the concentrations of the compounds for treatment varying from 0.3 μM to 3 μM to compare the recovery effects on seed germination rate of the compound of Example 1 and the compound of Comparative Example 1.

[2] = target: T1, PYR1 (Arabidopsis thaliana, UniProt O49686); test: Protein dephosphorylation enzyme activity test, PYR1; type: biochemical, thale cress; settings: control = 100%
T1 construct: 6xHis (N); made in house; host or cells: Escherichia coli BL21-codonplus(DE3)-RIPL (PYL); BL21(DE3)pLysS (HAB1)
T1 sequence (O49686 1-191): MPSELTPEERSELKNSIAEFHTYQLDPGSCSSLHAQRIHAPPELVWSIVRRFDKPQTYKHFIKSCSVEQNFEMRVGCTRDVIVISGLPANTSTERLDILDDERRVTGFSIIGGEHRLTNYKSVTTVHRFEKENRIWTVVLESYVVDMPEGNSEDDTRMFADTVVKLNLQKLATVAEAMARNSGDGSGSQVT
Description: A plasmid (pGex-2T-GST-HAB1 or pET28-6×His-PYL) encoded with PYR/PYL/RCAR proteins (PYL, abscisic acid receptor) or protein dephosphorylation enzyme HAB1 of thale cress was transformed to Escherichia coli (HAB1:BL21(DE3)pLysS, PYL:BL21-codonplus(DE3)-RIPL). Isopropyl-β-thiogalactopyranoside was added to the culture broth, which had been subjected to pre-culture (30° C., 180 rpm, 15 hours) and main culture (30° C., 180 rpm, 4 hours), and the protein-expressed (16° C., 150 rpm, 18 hours) crude enzyme solution was purified using FPLC thereby preparing the recombined PYL (PYR1, PYL1-6, PYL8-10) and HAB1. β-Mercaptoethanol, a manganese chloride aqueous solution, HAB1, PYL, a solution of the sample in dimethylsulfoxide and ultrapure water were sequentially added to a 96-well plate, allowed to stand at 22° C. for 30 minutes. Subsequently p-nitrophenylphosphate, which is the artificial substrate of HAB1, was added thereto to start the reaction, and the plate was placed in a microplate reader (TECAN, Infinite™ N200 NanoQuant). The absorbance at 405 nm due to p-nitrophenol, which is the hydrolysate of p-nitrophenylphosphate, was measured 3 minutes later from the reaction initiation, and HAB1 activity was calculated by the following formula (2). Note that the fraction to which only dimethylsulfoxide was added was considered to be the control and the activity thereof was defined as 100%. […] HAB1 specific activity (%)=Absorbance when sample was added/Absorbance of control×100 (2)

[3] = target: T2, recombined PYL5 (Arabidopsis thaliana, UniProt Q9FLB1); test: Bonding affinity measurement using an isothermal titration calorimeter; type: binding, thale cress; settings: ITC, 20° C., sodium phosphate buffer
T2 construct: 6xHis (N); made in house; host or cells: Escherichia coli BL21-codonplus(DE3)-RIPL
T2 sequence (Q9FLB1 1-203): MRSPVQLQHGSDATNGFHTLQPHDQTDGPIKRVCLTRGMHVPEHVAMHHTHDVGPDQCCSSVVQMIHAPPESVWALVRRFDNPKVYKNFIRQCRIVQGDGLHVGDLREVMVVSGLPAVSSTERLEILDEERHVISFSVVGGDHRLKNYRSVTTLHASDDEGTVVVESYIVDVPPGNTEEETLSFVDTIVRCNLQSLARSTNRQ
Description: A sodium phosphate buffer solution of a recombined PYL5 was prepared in the same procedure as in Test Example 5, and put in a reaction cell of an isothermal titration calorimeter (GE Healthcare, MicroCal iTC200), and a sodium phosphate buffer solution of the compound of Example 1 was put in the syringe. Then, the calorimeter was set to 20° C. and the measurement was carded out. The same measurement as above was also carried out for the compounds of Examples 7 to 9.

[4] = 3 μM compound co-applied with 0.3 μM ABA

| Compound | HAB1 Specific activity (%) PYR1 ([2]; ABA + compound) [%] | HAB1 Specific activity (%) PYR1 ([2]; sample alone) [%] | Kd [3] [nM] | ΔG [3] [kcal/mol] | ΔH [3] [kcal/mol] | −TΔS [3] [kcal/mol] | Germination rate (%) 24 Hours later [1, 4] [%] | Germination rate (%) 36 Hours later [1, 4] [%] | Germination rate (%) 48 Hours later [1, 4] [%] | Germination rate (%) 60 Hours later [1, 4] [%] | Germination rate (%) 24 Hours later ([1]; compound alone, 3 μM) [%] | Germination rate (%) 36 Hours later ([1]; compound alone, 3 μM) [%] | Germination rate (%) 48 Hours later ([1]; compound alone, 3 μM) [%] | Germination rate (%) 60 Hours later ([1]; compound alone, 3 μM) [%] |
| --- | --- | --- | --- | --- | --- | --- | --- | --- | --- | --- | --- | --- | --- | --- |
| C#CCO[C@@H]1C=C(C)[C@](O)(/C=C/C(C)=C\C(=O)O)C(C)(C)C1 [Example 3, (2Z,4E)-5-((1S,4S)-1-hydroxy-2,6,6-trimethyl-4-(prop-2-yn-1-yloxy)cyclohex-2-en-1-yl)-3-methylpenta-2,4-dienoic acid] | – | – | – | – | – | – | 0 | 6.9 | 20.7 | 48.3 | 0 | 13.3 | 60 | 71.1 |
| CC1=C[C@@H](OCC#Cc2ccc(C(F)(F)F)cc2)CC(C)(C)[C@@]1(O)/C=C/C(C)=C\C(=O)O [Example 4, (2Z,4E)-5-((1S,4S)-1-hydroxy-2,6,6-trimethyl-4-((3-(4-trifluoromethyl)phenylprop-2-yn-1-yl)oxy)cyclohex-2-en-1-yl)-3-methylpenta-2,4-dienoic acid] | 36.7 | 55.4 | – | – | – | – | 0 | 29 | 58 | 100 | 8 | 33 | 75 | 92 |
| COc1ccc(C#CCO[C@@H]2C=C(C)[C@](O)(/C=C/C(C)=C\C(=O)O)C(C)(C)C2)cc1 [Example 5, (2Z,4E)-5-((1S,4S)-1-hydroxy-2,6,6-trimethyl-4-((3-(4-methoxy)phenylprop-2-yn-1-yl)oxy)cyclohex-2-en-1-yl)-3-methylpenta-2,4-dienoic acid] | 50.5 | 92.3 | – | – | – | – | 0 | 30 | 67 | 100 | 5 | 37 | 79 | 95 |
| CC(=O)c1ccc(C#CCO[C@@H]2C=C(C)[C@](O)(/C=C/C(C)=C\C(=O)O)C(C)(C)C2)cc1 [Example 6, (2Z,4E)-5-((1S,4S)-1-hydroxy-2,6,6-trimethyl-4-((3-(4-acetyl)phenylprop-2-yn-1-yl)oxy)cyclohex-2-en-1-yl)-3-methylpenta-2,4-dienoic acid] | 41.5 | 87.9 | – | – | – | – | 7 | 28 | 52 | 72 | 0 | 17 | 75 | 92 |

Further lines, with some results ahead:

| HAB1 Specific activity (%) PYR1 ([2]; ABA + compound) [%] | HAB1 Specific activity (%) PYR1 ([2]; sample alone) [%] | Kd [3] [nM] | ΔG [3] [kcal/mol] | ΔH [3] [kcal/mol] | −TΔS [3] [kcal/mol] | Compound | Germination rate (%) 24 Hours later [1, 4] [%] | Germination rate (%) 36 Hours later [1, 4] [%] | Germination rate (%) 48 Hours later [1, 4] [%] | Germination rate (%) 60 Hours later [1, 4] [%] | Germination rate (%) 24 Hours later ([1]; compound alone, 3 μM) [%] | Germination rate (%) 36 Hours later ([1]; compound alone, 3 μM) [%] | Germination rate (%) 48 Hours later ([1]; compound alone, 3 μM) [%] | Germination rate (%) 60 Hours later ([1]; compound alone, 3 μM) [%] |
| --- | --- | --- | --- | --- | --- | --- | --- | --- | --- | --- | --- | --- | --- | --- |
| 62.9 | 105 | 180 ± 10 | -9.0 ± 0.1 | -4.9 ± 0.1 | -4.1 | CC1=C[C@@H](OCC#Cc2ccc(S(F)(F)(F)(F)F)cc2)CC(C)(C)[C@@]1(O)/C=C/C(C)=C\C(=O)O [Example 8] | 0 | 0 | 23 | 89 | 0 | 60 | 100 | 100 |
| 32.1 | 87.8 | 360 ± 70 | -8.6 ± 0.1 | -6.7 ± 0.1 | -2.0 | CC1=C[C@@H](OCCCc2ccccc2)CC(C)(C)[C@@]1(O)/C=C/C(C)=C\C(=O)O [Example 9] | 0 | 60 | 100 | 100 | 1 | 88 | 100 | 100 |

— US10125095B2, “Abscisic acid derivative” (NATIONAL UNIVERSITY CORPORATION SHIZUOKA UNIVERSITY, priority 2014, dated 2018)
